According to patent US8962846B2, “Melanocortin receptor antagonist compounds, process for preparing them and use thereof in human medicine and cosmetics” (Galderma Research & Development, priority 2008, dated 2015):

Assays:
hMC4-R = target: T1, hMC4-R (Homo sapiens, UniProt P32245); assay: Transactivation test: melanocortin receptors (CRE-Luc luciferase), hMC4-R; assay type: cell-based; conditions: HEK293 transfected with pCRE-Luc and receptor; 10-point dose response from 10 μM; antagonist behaviour tested in presence of 1 nM NDP-MSH; 6 hours incubation
T1 construct: expressed in transfected cells; host or cells: HEK293
T1 sequence (P32245 whole entry): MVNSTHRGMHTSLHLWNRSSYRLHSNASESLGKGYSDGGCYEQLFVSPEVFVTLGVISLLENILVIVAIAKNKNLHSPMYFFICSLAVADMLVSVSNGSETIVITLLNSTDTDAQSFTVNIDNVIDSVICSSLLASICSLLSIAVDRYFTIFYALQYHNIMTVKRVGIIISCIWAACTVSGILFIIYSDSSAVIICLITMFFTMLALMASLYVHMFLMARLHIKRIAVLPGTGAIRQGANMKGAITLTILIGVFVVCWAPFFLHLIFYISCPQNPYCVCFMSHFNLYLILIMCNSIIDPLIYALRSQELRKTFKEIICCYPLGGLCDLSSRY
Protocol: (§1) The lines HEK293 are transfected with vectors pCRE-Luc and hMCl1R or hMCl4R. The cells are cultured at 37° C. and 5% CO2, in DMEM medium supplemented with 10% foetal calf serum.
(§2) In the presence of an activator (agonist), the melanocortin receptor will activate the cAMP pathway, which, via the vector CRE-Luc, will lead to the synthesis of luciferase. After addition of a lysis buffer containing a luminescent luciferase substrate, the luminescence proportional to the degree of activation or inhibition of receptor may be measured.
(§3) The products are dissolved at 10 mM in DMSO. They are tested as a response dose at 0.1% of DMSO final. The range comprising 10 points and a zero starts at 10 μM with four-fold dilutions. To test agonists, the products are tested alone. To determine the antagonist behaviour, the products of interest are tested in the presence of 1 nM NDP-MSH (reference agonist). The cells are inoculated at a rate of 5000 cells per well (384-well plate) in serum-free DMEM medium and incubated overnight at 37° C. and 5% CO2.
(§4) The products and the reference ligand (NDP-MSH) are added the following day and the plates are reincubated for 6 hours at 37° C. and 5% CO2. After adding the lysis buffer containing luciferin, the plates are read in a Top-Count machine. The results are normalized as percentage of activity using the 100% (cells+NDP-MSH at 10 nM) and 0% (cells alone) controls. An EC50 is calculated for each product using the XLFit software.

hMC1-R = target: T2, hMC1-R (Homo sapiens, UniProt Q01726); assay: Transactivation test: melanocortin receptors (CRE-Luc luciferase), hMC1-R; assay type: cell-based; conditions: HEK293 transfected with pCRE-Luc and receptor; 10-point dose response from 10 μM; antagonist behaviour tested in presence of 1 nM NDP-MSH; 6 hours incubation
T2 construct: expressed in transfected cells; host or cells: HEK293
T2 sequence (Q01726 whole entry): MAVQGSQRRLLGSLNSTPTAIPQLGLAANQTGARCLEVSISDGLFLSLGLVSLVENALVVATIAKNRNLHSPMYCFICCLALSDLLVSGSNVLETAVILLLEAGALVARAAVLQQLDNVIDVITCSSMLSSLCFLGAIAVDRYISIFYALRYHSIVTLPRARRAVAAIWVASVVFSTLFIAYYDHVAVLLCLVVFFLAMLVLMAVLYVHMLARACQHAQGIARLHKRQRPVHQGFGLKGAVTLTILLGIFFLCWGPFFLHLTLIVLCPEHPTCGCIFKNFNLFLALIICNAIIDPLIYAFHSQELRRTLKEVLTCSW
Protocol: as §1, §2, §3, §4

Row | SMILES | EC50 (hMC4-R) [nM] | EC50 (hMC1-R) [nM]
1 | CCCC(=O)C1(C2CCCCC2)CCN(C(=O)[C@@H](Cc2ccc(OC)cc2)NC(=O)NCCc2c[nH]nn2)CC1 [Example 3, 1-[(R)-2-(4-Butyryl-4-cyclohexylpiperidin-1-yl)-1-(4-methoxybenzyl)-2-oxoethyl]-3-[2-(1H-[1,2,3]triazol-4-yl)ethyl]urea] | 50 | 
2 | CCCC(=O)C1(C2CCCCC2)CCN(C(=O)[C@@H](Cc2ccc(OC)cc2)NC(=O)NCCc2cn(C)cn2)CC1 [Example 2, 1-[(R)-2-(4-Butyryl-4-cyclohexylpiperidin-1-yl)-1-(4-methoxybenzyl)-2-oxoethyl]-3-[2-(1-methyl-1H-imidazol-4-yl)ethyl]urea] | 50 | 1000
3 | COc1ccc(CC(NC(=O)NCCc2c[nH]cn2)C(=O)N2CCC(C(=O)NC(C)(C)C)(C3CCCCC3)CC2)cc1 (centres unmarked) [Example 1, 4-Cyclohexyl-1-[2-{3-[2-(1H-imidazol-4-yl)ethyl]ureido}-3-(4-methoxyphenyl)propionyl]piperidine-4-tert-butylcarbamoyl] | 60 | 
4 | CCOC(=O)C1(C2CCCCC2)CCN(C(=O)[C@@H](Cc2ccc(OC)cc2)NC(=O)NCCCc2cnc[nH]2)CC1 [Example 4, Ethyl 4-cyclohexyl-1-[(R)-2-{3-[3-(3H-imidazol-4-yl)propyl]-ureido}-3-(4-methoxyphenyl)propionyl]piperidine-4-carboxylate] | 20 | 500

Continued, values first:

Row | EC50 (hMC4-R) [nM] | EC50 (hMC1-R) [nM] | SMILES
5 | 10 |  | CCOC(=O)C1(C2CCCCC2)CCN(C(=O)[C@@H](Cc2ccc(Cl)c(Cl)c2)NC(=O)NCCc2cncn2C)CC1 [Example 6, Ethyl 4-cyclohexyl-1-((R)-3-(3,4-dichlorophenyl)-2-{3-[2-(3-methyl-3H-imidazol-4-yl)ethyl]ureido}propionyl)piperidine-4-carboxylate]
6 | 15 |  | CCOC(=O)C1(C2CCCCC2)CCN(C(=O)[C@@H](Cc2ccc(Cl)c(Cl)c2)NC(=O)NCCc2c[nH]cn2)CC1 [Example 5, Ethyl 4-cyclohexyl-1-((R)-3-(3,4-dichlorophenyl)-2-{3-[2-(1H-imidazol-4-yl)ethyl]ureido}propionyl)piperidine-4-carboxylate]
7 | 2 | 1000 | CCOC(=O)C1(C2CCCCC2)CCN(C(=O)[C@@H](Cc2ccc(Cl)cc2Cl)NC(=O)NCCc2c[nH]cn2)CC1 [Example 9, Ethyl 4-cyclohexyl-1-((R)-3-(2,4-dichlorophenyl)-2-{3-[2-(1H-imidazol-4-yl)ethy]ureido}propionyl)piperidine-4-carboxylate]
8 | 50 | 1000 | CCOC(=O)C1(C2CCCCC2)CCN(C(=O)[C@@H](Cc2ccc(OC)cc2)NC(=S)NCCc2cn(C)cn2)CC1 [Example 8, Ethyl 4-cyclohexyl-1-((R)-3-(4-methoxyphenyl)-2-{3-[2-(1-methyl-1H-imidazol-4-yl)ethyl]thioureido}propionyl)piperidine-4-carboxylate]
9 | 50 | 1000 | CCOC(=O)C1(C2CCCCC2)CCN(C(=O)[C@@H](Cc2ccc(OC)cc2)NC(=S)NCCCc2c[nH]cn2)CC1 [Example 7, Ethyl 4-cyclohexyl-1-[(R)-2-{3-[3-(1H-imidazol-4-yl)propyl]-thioureido}-3-(4-methoxyphenyl)propionyl]piperidine-4-carboxylate]
